Results from patent publication US20210186947A1, “TOMM6-INTERACTING EXTRACTS AND COMPOUNDS FOR USE IN THE TREATMENT AND PROPHYLAXIS OF NERVOUS SYSTEM DISEASES, ATHEROSCLEROSIS, HEPATITIS B INFECTION AND HUMAN PAPILLOMA VIRUS (HPV) INFECTION” (ETH ZURICH, priority 2018, published 2021).

Experiments:
[1] = test system: Abeta plaques; assay: Abeta plaque load in Tg2576 mice, immunohistology with BAM-10 antibody; type: in vivo; details: 18-month-old Tg2576 mice treated for 6 months
[2] = test system: HPV-induced warts; assay: Phase-1 placebo-controlled study of topical Compound-1 on flat warts; type: in vivo, human; details: once daily topical Compound-1-containing hydrogel (0.2%) for 3 weeks
Experimental: The study analyzed the treatment effect of topical administration of Compound-1 on warts. The study was performed according to the study protocol. Study design: The study was a phase-1, placebo-controlled study of Compound-1. The primary end-point was safety and tolerability. Secondary objectives were treatment effects on wart lesion size. The study included a cohort of 6 voluntary research participants (6 males; age 36-72 years; all Caucasians) with diagnosed flat warts. A total number of 94 lesions were treated with Compound-1. Vehicle-treated warts (n=88) of each participant served as placebo group. Study participants received once daily topical applications of a Compound-1-containing hydrogel (0.2%) or vehicle for 3 weeks. The study participants were under the medical supervision of Dr. Raafat Mahmood Fawzy (Clinical Director, Rabaa El Adaweya Medical Central Hospital, Cairo, Egypt). Clinical laboratory parameters of all research participants were within the normal range before, during the study and after completion of the study (observation period 4 weeks). […] The study protocol was conducted in accordance with the Declaration of Helsinki. All research participants provided written informed consent before participation. Research participants had the possibility to withdraw at any time from the study. But all participants wanted to complete the study.
A total number of 94 lesions were treated with Compound-1. Vehicle-treated warts (n=88) served as placebo. […] The treatment effect of Compound-1 against HPV infection is directly related to its activity as TOMM6 inducer/activator, which is a sufficient cause to inhibit (amyloidogenic) protein aggregation in cells and in vivo. In this context, HPV infection is another disease with causal involvement of an aggregation-prone amyloidogenic protein. Without wishing to be bound by theory, it is believed that Infections with human papillomaviruses (HPV) rely on the highly amyloidogenic protein E1AE4, also known as the HPV E4 protein (McIntosh et al., 82, 8196-8203 (2008)). The HPV E4 protein, which uses the amyloid-fold as does amyloid-beta, is the most abundantly expressed viral transcript/protein in HPV-infected epithelia, and mediates HPV-mediated disruption of cellular integrity, HPV release from infected epithelial cells and virus transmission (McIntosh et al., 82, 8196-8203 (2008); Doorbar, Virology 445, 80-98 (2013)). In HPV-induced warts, the aggregation-prone HPV E4 protein can constitute between 20% and 30% of the total wart protein (Doorbar et al., EMBO J. 5, 355-362 (1986)). The expression of E1AE4 relies on self-aggregation of the HPV E4 protein (Bryan et al., Virology 241, 49-60 (1998)).

[3] = target: T1, Tomm6 (Mus musculus, UniProt Q9CQN3); assay: Immunoblot detection of hippocampal Tomm6 protein in treated Tg2576 mice; type: in vivo; details: aged Tg2576 mice treated for 6 months
T1 construct: hippocampi were isolated from 5-10 aged Tg2576 mice, pulverized under liquid nitrogen and solubilized; from tissue; host or cells: hippocampus of Tg2576 mice
T1 sequence (Q9CQN3 1-74): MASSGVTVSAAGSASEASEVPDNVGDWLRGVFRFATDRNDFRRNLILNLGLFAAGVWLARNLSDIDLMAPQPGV

[4] = Body weight and food intake of B6 mice under oral treatment; details: oral 100 mg/kg/day for 4 weeks
[5] = humans; cited from earlier work
[6] = Measurement of serum level in dogs by HPLC; type: in vivo, German shepherd dogs; details: for peak serum concentration: t=1 h
Experimental: Serum concentrations of alizarin were determined with serum isolated from the blood of male and female German shepherd dogs (age: 8-9 months) taken at different time points (0.5 h, 1 h, 2 h, 4 h, 6 h, 8 h, 24 h) after oral intake of the indicated doses for 4 weeks. In addition, serum concentrations of alizarin (Compound-1) were determined in male and female Sprague Dawley rats (body weight: 200-250 g) treated for 1 month and/or three months by oral gavage of alizarin at a once daily dose of 100 mg/kg, 50 mg/kg, 25 mg/kg and 12.5 mg/kg. Serum proteins were removed by acetonitrile precipitation, and alizarin was extracted by chloroform before separation on an HPLC-C18 column (Poroshell 120 EC-C18, 3.0×50 mm, Agilent) with an HPLC system (Agilent 1100 Series) and detection at OD245 nm. For quantitative determination of Compound-7 and Compound-10F in rat and dog serum, serum proteins were also removed by acetonitrile precipitation before HPLC analysis as detailed above and detection at OD254 nm.

[7] = Tolerability / toxicity in dogs during four weeks of oral treatment; type: in vivo; details: once daily oral dose up to 6 mg/kg/d
Experimental: Sub-chronic toxicity studies in dogs (German Shepherd dogs) and rats (Sprague Dawley rats) were performed by the Center of Applied Analytical and Veterinary Studies, Cairo, Egypt.

In the case of O=C1c2ccccc2C(=O)c2c1ccc(O)c2O [Compound-1, 1,2-dihydroxyanthraquinone], the “Abeta plaque load in hippocampal and brain cortical areas” value [1] is reported as “significantly inhibited the accumulation of Abeta plaques”, the “response of treated warts” value [2] is reported as “showed a response” and the “adverse effects (safety and tolerability)” value ([2]; 6 participants) is reported as “no adverse effects”. The “lesions with complete response (100% decrease of the lesion area)” value ([2]; 94 lesions) was “more than 86%”, the “lesions with partial response (>50%-<100% decrease of lesion area)” value ([2]; 94 lesions) was 13.8% and the “hippocampal protein content of Tomm6” value [3] was “substantially increased”. For the same compound, the body weight ([4]; 12-week-old B6 mice) was “did not significantly alter”, the “daily food intake / food consumption” value ([4]; B6 mice) was “did not significantly alter” and the “toxicity of long-term treatment for several years” value [5] was “is not toxic”. For the same compound, the “oral bioavailability / serum concentrations after oral intake” value [6] was “achieves therapeutic serum concentrations”, the “time of second serum peak” value ([6]; after oral intake) was 4 h and the peak serum concentration ([6]; repeated once daily oral dose of 2 mg/kg) was 0.146 ± 0.017 µg/mL. For the same compound, the peak serum concentration ([6]; repeated once daily oral dose of 6 mg/kg) was 0.467 ± 0.022 µg/mL, the “time of peak serum concentration” value ([6]; repeated once daily oral intake of 2 mg/kg/day and 6 mg/kg/day) was 1 h and the “adverse effects (behaviour, food intake, weight gain, cardiovascular parameters, blood cells, clinical chemistry)” value [7] was “did not induce any detectable adverse effects”.
